Measurements reported in publication PMC9820279 (International Journal of Molecular Sciences, 2022).
Read-outs that look alike come from different tables or passages of the source.

Columns and labels:
[1] = system: HBMEC monolayer
Method: The cell line HBMEC was used as a simplified in vitro model of the BBB endothelium. […] Endothelial cell cultures were maintained at 37 °C in a humid atmosphere enriched with 5% CO2. In our studies, HBMEC were used between passage 25 and 29. For experiments, HBMECs were seeded using a volume of 200 µL at a density of 8 × 10^4 cells/mL in rat tail collagen-I (100 µg/mL) coated 96-well plates (for viability assay) or 500 µL at a density of 1.6 × 10^5 cells/mL in rat tail collagen-I (100 µg/mL) coated semi-permeable membranes in transwell inserts (0.4 µm pore, Corning Costar Corp., USA; for BBB integrity and transport assays) for 12-well plates. The incubation timepoints were assay dependent.
For the transendothelial transport assays, HBMEC were seeded on transwell inserts as described above and are schematically depicted in Figure 1a. After seeding, the media were changed every two days. Four days post-seeding, the HBMEC monolayer was formed, and the transport studies were performed. […] Vupper and Vlower is the upper and lower compartment volume (0.5 and 1.5 mL, respectively). The culture inserts were used for the subsequent integrity permeability studies.

[2] = cited from earlier work
[3] = design: method as in PMID 35782945, PMID 34869538, PMID 34209864, PMID 35498984, PMID 34923590; settings: previously studied by the group; cited from earlier work
[4] = system: AChE; settings: previously studied by the group; cited from earlier work
[5] = system: BChE; settings: previously studied by the group; cited from earlier work
[6] = system: LOX; design: method as in PMID 35782945, PMID 34869538, PMID 34209864, PMID 35498984, PMID 34923590; settings: previously studied by the group; cited from earlier work
[7] = matrix ASFE extract 24 µg/mL, 2 h incubation, n.d = not detected in lower compartment
[8] = matrix ASFE extract 24 µg/mL, 4 h incubation, n.d = not detected in lower compartment

With `C[C@@H]1CCCC2=CC[C@@H]3[C@@H](C3(C)C)[C@]21C` [(-)-Aristolene] the “Te % (SEM) 2 h” value [1] was 39.7 (0.4) %, the “Te % (SEM) 4 h” value [1] was 71.3 (1.6) % and the “Detection in basolateral compartment (brain side) of HBMEC-BBB model” value (shortened to “Detection in basolateral compartment”) ([1]; PLE100 extract) was “detected in the basolateral compartment”. For the same compound, the “Crossing of the PAMPA-BBB system” value ([2]; PLE100 extract compounds) was “could not cross”.
For `O=C1c2c(O)cc(O)cc2O[C@H](c2ccc(O)cc2)[C@H]1O` [Aromadendrin], the “Detection / transport to lower compartment (brain side) of HBMEC-BBB model” value ([1]; ASFE extract) was “could reach the “brain side””, the “Te % (SEM) 2 h” value [1, 7] was 76.2 (0.8) % and the “Te % (SEM) 4 h” value [1, 8] was 78.7 (0.7) %. For the same compound, the “Detection in the lower well of the PAMPA-BBB model” value (“Detection in the lower well” for short) ([2]; ASFE extract compounds) was “not detected in the lower well”.
In the case of `O=C1O[C@H]([C@@H](O)CO)C(O)=C1O` [Ascorbic acid], the “RNS IC50” value [3] is listed as 1100.9 mg/L.
In the case of `O=C(/C=C/c1ccc(O)c(O)c1)O[C@@H](C(=O)O)[C@@H](O)C(=O)O` [Caftaric acid], the “Detection / transport to lower compartment (brain side) of HBMEC-BBB model” value [1] is reported as “could reach the “brain side””, the “Te % (SEM) 2 h” value ([1]; human, 2 h, 24 µg/mL) is reported as 46.3 (3.6) % and the “Te % (SEM) 4 h” value ([1]; human, 4 h, 24 µg/mL) is reported as 87.6 (3.5) %. The “Detection in the lower well” value ([2]; ASFE extract compounds) was “not detected in the lower well”.
In the case of `O=c1oc2c(O)c(O)cc3c(=O)oc4c(O)c(O)cc1c4c23` [Ellagic acid], the “Detection / transport to lower compartment (brain side) of HBMEC-BBB model” value [1] is reported as “could reach the “brain side””, the “Te % (SEM) 2 h” value ([1]; human, 2 h, 24 µg/mL) is reported as 42.4 (1.6) % and the “Te % (SEM) 4 h” value ([1]; human, 4 h, 24 µg/mL) is reported as 85.5 (2.5) %. The “Detection in the lower well” value ([2]; ASFE extract compounds) was “not detected in the lower well”.
For `COc1cc(/C=C/C(=O)O)ccc1O` [Ferulic acid], the “Detection / transport to lower compartment (brain side) of HBMEC-BBB model” value ([1]; ASFE extract) is given as “could reach the “brain side””, the “Te % (SEM) 4 h” value [1, 8] is given as 9.1 (0.3) % and the “Detection in the lower well” value ([2]; ASFE extract compounds) is given as “not detected in the lower well”.
In the case of `COc1ccc2c3c1O[C@H]1C[C@@H](O)C=C[C@@]31CCN(C)C2` [Galantamine], the “AChE IC50” value [4] is given as 0.40 mg/L and the “BChE IC50” value [5] is given as 2.36 mg/L.
For `CC(CC(=O)C[C@@H](C)[C@H]1C[C@H](O)[C@@]2(C)C3=C(C(=O)C[C@]12C)[C@@]1(C)CC[C@H](O)C(C)(C)[C@@H]1CC3)C(=O)O` (some centres unmarked) [Ganolucidic acid B], the “Detection / transport to lower compartment (brain side) of HBMEC-BBB model” value ([1]; ASFE extract) was “could reach the “brain side””, the “Te % (SEM) 2 h” value [1, 7] was 28.4 (1.1) % and the “Te % (SEM) 4 h” value [1, 8] was 28.6 (1.5) %. For the same compound, the “Detection in the lower well” value ([2]; ASFE extract compounds) was “not detected in the lower well”.
In the case of `O=c1c(O[C@@H]2O[C@H](CO)[C@@H](O)[C@H](O)[C@H]2O)c(-c2ccc(O)c(O)c2)oc2cc(O)cc(O)c12` [Isoquercitrin], the “Te % (SEM) 2 h” value ([1]; human, 2 h, 30 µg/mL) is listed as 6.0 (0.2) %, the “Te % (SEM) 4 h” value ([1]; human, 4 h, 30 µg/mL) is listed as 16.3 (1.3) % and the “Crossing of the in vitro PAMPA-BBB” value ([2]; PAMPA) is listed as “not capable of crossing”.
In the case of `C=C(C)[C@@H]1CC[C@]2(C)CC[C@]3(C)[C@H](CC[C@@H]4[C@@]5(C)CC[C@H](OC(C)=O)C(C)(C)[C@@H]5CC[C@]43C)[C@@H]12` [Lupeol acetate], the “Detection in basolateral compartment” value ([1]; OL-SS extract) is listed as “not detected” and the “Detection in the PAMPA-BBB model” value ([2]; OL-SS extract compounds) is listed as “not detected”.
For `CC(C)=CCC/C(C)=C\CO` [Nerol], the “Detection in basolateral compartment” value ([1]; PLE100 extract) was “detected in the basolateral compartment”, the “Te % (SEM) 2 h” value ([1]; human) was 26.8 (0.2) % and the “Te % (SEM) 4 h” value ([1]; human) was 41.5 (3.1) %. For the same compound, the “Crossing of the PAMPA-BBB system” value ([2]; PLE100 extract compounds) was “could not cross”.
For `Oc1cc(O)c2c(c1)O[C@H](c1ccc(O)c(O)c1)[C@H](O)[C@H]2c1c(O)cc(O)c2c1O[C@H](c1ccc(O)c(O)c1)[C@H](O)C2` [Procyanidin B2], the “Detection / transport to lower compartment (brain side) of HBMEC-BBB model” value ([1]; ASFE extract) was “could reach the “brain side””, the “Te % (SEM) 2 h” value [1, 7] was 56.8 (0.0) % and the “Te % (SEM) 4 h” value [1, 8] was 61.9 (2.6) %. The “Detection in the lower well” value ([2]; PAMPA) was “not detected in the lower well”.
In the case of `Oc1cccc(O)c1O` [Pyrogallol], the “Detection / transport to lower compartment (brain side) of HBMEC-BBB model” value [1] is reported as “could reach the “brain side””, the “Te % (SEM) 2 h” value ([1]; human, 2 h, 24 µg/mL) is reported as 37.6 (2.6) % and the “Te % (SEM) 4 h” value ([1]; human, 4 h, 24 µg/mL) is reported as 80.5 (1.1) %. For the same compound, the “Detection in the lower well” value ([2]; ASFE extract compounds) was “not detected in the lower well”.
For `O=c1c(O)c(-c2ccc(O)c(O)c2)oc2cc(O)cc(O)c12` [Quercetin], the “LOX IC50” value [6] is given as 125.7 mg/L.
In the case of `COc1cc(/C=C/C(=O)O)cc(OC)c1O` [Sinapic acid], the “Te % (SEM) 2 h” value [1] is reported as 35.6 (2.0)/n.d %, the “Te % (SEM) 4 h” value [1] is reported as 44.4 (3.2)/18.6 (0.5) % and the “Detection / transport to lower compartment (brain side) of HBMEC-BBB model” value ([1]; ASFE extract) is reported as “could reach the “brain side””. The “Te % (SEM) 4 h” value [1, 8] was 44.4 (3.2)/18.6 (0.5) %, the “Detection in the lower well” value ([2]; ASFE extract compounds) was “not detected in the lower well” and the “Crossing of the in vitro PAMPA-BBB” value ([2]; T33 extract compounds) was “not capable of crossing”.
For `CC(C)=CCC/C(C)=C/CC/C(C)=C/CC/C=C(\C)CC/C=C(\C)CCC=C(C)C` [Squalene], the “Detection in basolateral compartment” value ([1]; PLE100 extract) was “detected in the basolateral compartment”, the “Te % (SEM) 2 h” value ([1]; matrix OL-SS extract 40 µg/mL, 2 h incubation, n.d = not detected in lower compartment) was 24.1 (1.4) % and the “Te % (SEM) 4 h” value ([1]; matrix OL-SS extract 40 µg/mL, 4 h incubation, n.d = not detected in lower compartment) was 33.2 (0.9) %. The “Te % (SEM) 2 h” value ([1]; matrix PLE100 extract 15 µg/mL, 2 h incubation, n.d = not detected in lower compartment) was 19.1 (1.4) %, the “Te % (SEM) 4 h” value ([1]; matrix PLE100 extract 15 µg/mL, 4 h incubation, n.d = not detected in lower compartment) was 47.6 (1.5) % and the “Crossing of the PAMPA-BBB system” value ([2]; PLE100 extract compounds) was “could not cross”.
For `Oc1ccc(/C=C/c2cc(O)cc3c2[C@@H](c2cc(O)cc(O)c2)[C@H](c2ccc(O)cc2)O3)cc1` [e-viniferin], the “Detection / transport to lower compartment (brain side) of HBMEC-BBB model” value ([1]; ASFE extract) was “could reach the “brain side””, the “Te % (SEM) 2 h” value [1, 7] was 39.2 (2.2) % and the “Te % (SEM) 4 h” value [1, 8] was 45.9 (3.0) %. For the same compound, the “Detection in the lower well” value ([2]; ASFE extract compounds) was “not detected in the lower well”.
In the case of `C[C@H]1[C@H](C)CC[C@]2(CO)CC[C@]3(C)C(=CC[C@@H]4[C@@]5(C)CC[C@H](O)C(C)(C)[C@@H]5CC[C@]43C)[C@H]12` [uvaol], the “Detection in basolateral compartment” value ([1]; OL-SS extract) is given as “detected” and the “Detection in the PAMPA-BBB model” value ([2]; OL-SS extract compounds) is given as “detected in the acceptor well”.
In the case of `C[C@H]1[C@H](C)CC[C@]2(C)CC[C@]3(C)C(=CC[C@@H]4[C@@]5(C)CC[C@H](O)C(C)(C)[C@@H]5CC[C@]43C)[C@H]12` [α-Amyrin], the “Detection in basolateral compartment” value ([1]; OL-SS extract) is listed as “not detected” and the “Detection in the PAMPA-BBB model” value ([2]; OL-SS extract compounds) is listed as “not detected”.
For `CC1(C)CC[C@]2(C)CC[C@]3(C)C(=CC[C@@H]4[C@@]5(C)CC[C@H](O)C(C)(C)[C@@H]5CC[C@]43C)[C@@H]2C1` [β-Amyrin], the “Detection in basolateral compartment” value ([1]; OL-SS extract) is given as “not detected”, the “Detection in basolateral compartment” value ([1]; PLE100 extract) is given as “not detected” and the “Crossing of the PAMPA-BBB system” value ([2]; PAMPA) is given as “not detected”. The “Detection in the PAMPA-BBB model” value ([2]; PAMPA) was “not detected”.
In the case of `C=CC1(C)CCC(=C(C)C)CC1C(=C)C` (centres unmarked) [γ-Elemene], the “Te % (SEM) 2 h” value [1] is reported as 30.1 (0.1) % and the “Te % (SEM) 4 h” value [1] is reported as 41.8 (1.7) %.
In the case of `CC[C@@H](CC[C@@H](C)[C@H]1CC[C@H]2[C@@H]3CC=C4C[C@@H](O)CC[C@]4(C)[C@H]3CC[C@]12C)C(C)C` [γ-Sitosterol], the “Te % (SEM) 2 h” value [1] is reported as 12.9 (0.6)/11.3 (0.5) % and the “Te % (SEM) 4 h” value [1] is reported as 19.2 (1.3)/12.1 (0.6) %.
With `Cc1c(O)cc2c(c1C)O[C@](C)(CCC[C@H](C)CCC[C@H](C)CCCC(C)C)CC2` [γ-Tocopherol] the “Te % (SEM) 2 h” value [1] was 31.5 (0.8)/27.3 (2.1) % and the “Te % (SEM) 4 h” value [1] was 42.0 (0.8)/30.0 (1.6) %.
In the case of `CC1=C[C@@H]2C(=C(C)CC[C@H]2C(C)C)CC1` [δ-Cadinene], the “Te % (SEM) 2 h” value [1] is reported as 21.5 (0.8) % and the “Te % (SEM) 4 h” value [1] is reported as 28.9 (2.4) %.
In the case of Caffeoylshikimic acid, the “Te % (SEM) 2 h” value [1] is reported as 14.3 (0.8) % and the “Te % (SEM) 4 h” value [1] is reported as 29.0 (0.1) %.
For Cymenol, the “Te % (SEM) 2 h” value [1] was 51.5 (1.8) %.
In the case of Farnesene, the “Te % (SEM) 2 h” value [1] is reported as 46.0 (2.1) % and the “Te % (SEM) 4 h” value [1] is reported as 50.9 (3.1) %.
In the case of Phytol, the “Te % (SEM) 2 h” value ([1]; human) is reported as 15.6 (0.3) % and the “Te % (SEM) 4 h” value ([1]; human) is reported as 43.5 (3.7) %.
With Tocospiro A the “Te % (SEM) 2 h” value [1] was 2.7 (0.2) % and the “Te % (SEM) 4 h” value [1] was 25.6 (1.5) %.
In the case of Tocospiro B, the “Te % (SEM) 2 h” value [1] is reported as 1.9 (0.1) % and the “Te % (SEM) 4 h” value [1] is reported as 26.2 (1.0) %.
For γ-silenene, the “Te % (SEM) 2 h” value [1] was 52.8 (3.8) % and the “Te % (SEM) 4 h” value [1] was 53.8 (2.8) %.
